In US20230203063A1, “TRICYCLIC PYRIDONES AND PYRIMIDONES” (Erasca, Inc., priority 2019, published 2023):

molecular target: T1, mutant G12C K-RAS (Homo sapiens, UniProt P01116, G12C); assay: covalent adduct formation (CAF) with mutant G12C K-RAS; type: binding; set-up: covalent adduct formation (CAF): unit not given here; details: Table 1; 10 micromolar, after 60 minutes
T1 construct: made in house; host or cells: E. coli BL21
Protocol: Embodiments disclosed herein are further illustrated by the following examples in Tables 1-4 and the Examples hereinbelow. The Tables indicate the compound number, structure, the observed mass spectral molecular weight peak, and covalent adduct formation (CAF) with a mutant G12C K-RAS after 60 minutes at a concentration of 10 micromolar.

% CAF(60 min) [%]	SMILES
67.4	C=CC(=O)N1CCN(c2nc(=O)n3c4c(c(-c5c(C)ccc6[nH]ncc56)c(Cl)cc24)OCC3)CC1 [Example 3, 7-(4-acryloylpiperazin-1-yl)-9-chloro-10-(5-methyl-1H-indazol-4-yl)-2H-[1,4]oxazino[2,3,4-ij]quinazolin-5(3H)-one]

same assay, conditions: Table 2; 10 micromolar, after 60 minutes

% CAF(60 min) [%]	SMILES
0	C=CC(=O)N1CCN(c2nc(=O)n3c4c(c(-c5c(O)cccc5F)c(Cl)cc24)OC[C@H]3CO)[C@@H](C)C1 [Example 23, (3R,10R)-7-((S)-4-acryloyl-2-methylpiperazin-1-yl)-9-chloro-10-(2-fluoro-6-hydroxyphenyl)-3-(hydroxymethyl)-2H-[1,4]oxazino[2,3,4-ij]quinazolin-5(3H)-one]

same assay, conditions: Table 6; 10 uM, 1 h

SMILES	% CAF @ 10 uM, 1 h [%]
C=CC(=O)N1C[C@H](C)N(c2nc(=O)n3c4c(c(-c5ccc(F)cc5F)c(Cl)cc24)OC[C@H]3CCCN2C3CCC2CN(C)C3)C[C@H]1C [Example 321, (3R)-7-((2S,5R)-4-acryloyl-2,5-dimethylpiperazin-1-yl)-9-chloro-10-(2,4-difluorophenyl)-3-(3-(3-methyl-3,8-diazabicyclo[3.2.1]octan-8-yl)propyl)-2,3-dihydro-5H-[1,4]oxazino [2,3,4-ij] quinazolin-5-one]	71.2
C=CC(=O)N1CCN(c2nc(=O)n3c4c(c(-c5c(O)cccc5F)c(Cl)cc24)OC[C@H]3CN2CCC(F)(F)C2)[C@@H](C)C1 (atropisomer, axis not shown) [Example 227, (3R,10R)-7-((S)-4-acryloyl-2-methyl-piperazin-1-yl)-9-chloro-3-((3,3-difluoropyrrolidin-1-yl)methyl)-10-(2-fluoro-6-hydroxyphenyl)-2,3-dihydro-5H-[1,4]-oxazino-[2,3,4-ij]-quinazolin-5-one]	0
C=CC(=O)N1C[C@H](C)N(c2nc(=O)n3c4c(c(-c5c(C)ccc6[nH]ncc56)c(Cl)cc24)OC[C@H]3Cn2cccn2)C[C@H]1C (atropisomer, axis not shown) [Example 319, (3R,10S)-3-((1H-pyrazol-1-yl)methyl)-7-((2S,5R)-4-acryloyl-2,5-dimethylpiperazin-1-yl)-9-chloro-10-(5-methyl-1H-indazol-4-yl)-2,3-dihydro-5H-[1,4]oxazino[2,3,4-ij]-quinazolin-5-one]	0
C=CC(=O)N1C[C@H](C)N(c2nc(=O)n3c4c(c(-c5c(C)ccc6[nH]nnc56)ccc24)OCC3)C[C@H]1C [Example 219, 7-((2S,5R)-4-acryloyl-2,5-dimethylpiperazin-1-yl)-10-(5-methyl-1H-benzo[d][1,2,3]triazol-4-yl)-2,3-dihydro-5H-[1,4]oxazino[2,3,4-ij]quinazolin-5-one]	0
C=CC(=O)N1C[C@H](C)N(c2nc(=O)n3c4c(c(-c5c(C)ccc6[nH]ncc56)c(Cl)cc24)OC[C@H]3CCCN2C[C@@H]3C[C@H]2CO3)C[C@H]1C [Example 325, (3R,10S)-3-(3-((1S,4S)-2-oxa-5-azabicyclo[2.2.1]heptan-5-yl)propyl)-7-((2S,5R)-4-acryloyl-2,5-dimethylpiperazin-1-yl)-9-chloro-10-(5-methyl-1H-indazol-4-yl)-2,3-dihydro-5H-[1,4]oxazino [2,3,4-ij] quinazolin-5-one]	0
C=CC(=O)N1C[C@H](C)N(c2nc(=O)n3c4c(c(-c5c(O)cccc5F)c(Cl)cc24)OC[C@H]3CN(C)CC(F)(F)F)C[C@H]1C (atropisomer, axis not shown) [Example 241, (3R,10R)-7-((2S,5R)-4-acryloyl-2,5-dimethylpiperazin-1-yl)-9-chloro-10-(2-fluoro-6-hydroxyphen-yl)-3-((methyl(2,2,2-trifluoroethyl)amino)-methyl)-2H-[1,4]-oxazino[2,3,4-ij]-quinazolin-5(3H)-one]	0
C=CC(=O)N1C[C@H](C)N(c2nc(=O)n3c4c(c(-c5c(C)ccc6[nH]ncc56)c(Cl)cc24)OC[C@@H]3CCCN2C3CCC2COC3)C[C@H]1C [Example 281, (3S,10S)-3-(3-(3-oxa-8-azabicyclo[3.2.1]octan-8-yl)propyl)-7-((2S,5R)-4-acryloyl-2,5-dimethylpiperazin-1-yl)-9-chloro-10-(5-methyl-1H-indazol-4-yl)-2,3-dihydro-5H-[1,4]oxazino [2,3,4-ij] quinazolin-5-one]	0
C=CC(=O)N1C[C@H](C)N(c2nc(=O)n3c4c(c(-c5c(F)ccc6[nH]cnc56)ccc24)OCC3)C[C@H]1C [Example 201, 7-((2S,5R)-4-acryloyl-2,5-dimethylpiperazin-1-yl)-10-(5-fluoro-1H-benzo[d]imidazol-4-yl)-2,3-dihydro-5H-[1,4]oxazino[2,3,4-ij]quinazolin-5-one]	0

Next, values leading:

% CAF @ 10 uM, 1 h [%]	SMILES
0	C=CC(=O)N1C[C@H](C)N(c2nc(=O)n3c4c(c(-c5c(O)cccc5F)c(Cl)cc24)OC[C@@H]3CN2CCN(C)CC2)C[C@H]1C (atropisomer, axis not shown) [Example 305, (3S,10R)-7-((2S,5R)-4-acryloyl-2,5-dimethylpiperazin-1-yl)-9-chloro-10-(2-fluoro-6-hydroxyphen-yl)-3-((4-methylpiper-azin-1-yl)methyl)-2,3-dihydro-5H-[1,4]-oxazino[2,3,4-ij]-quinazolin-5-one]
0	C=CC(=O)N1C[C@H](C)N(c2nc(=O)n3c4c(c(-c5c(O)cccc5F)c(Cl)cc24)OC[C@H]3CN2CCOCC2)C[C@H]1C (atropisomer, axis not shown) [Example 210, (3R,10R)-7-((2S,5R)-4-acryloyl-2,5-dimethyl-piperazin-1-yl)-9-chloro-10-(2-fluoro-6-hydroxyphenyl)-3-(morpholinomethyl)-2,3-dihydro-5H-[1,4]-oxazino-[2,3,4-ij]-quinazolin-5-one]
0	C=CC(=O)N1CCN(c2nc(=O)n3c4c(c(-c5c(O)cccc5F)c(Cl)cc24)OC[C@@H]3CN2CCOCC2)[C@@H](C)C1 [Example 195, (3S,10R)-7-((S)-4-acryloyl-2-methylpiperazin-1-yl)-9-chloro-10-(2-fluoro-6-hydroxyphenyl)-3-(morpholinomethyl)-2,3-dihydro-5H-[1,4]oxazino[2,3,4-ij]quinazolin-5-one]
100	C=CC(=O)N1CCN(c2nc(=O)n3c4c(c(-c5c(O)cccc5F)c(Cl)cc24)OC[C@H]3CN2CCOCC2)[C@@H](C)C1 [Example 198, (3R,10S)-7-((S)-4-acryloyl-2-methvlpiperazin-1-yl)-9-chloro-10-(2-fluoro-6-hydroxyphenyl)-3-(morpholinomethyl)-2,3-dihydro-5H-[1,4]oxazino[2,3,4-ij]quinazolin-5-one]

same assay, conditions: Table 7; 10 micromolar, after 60 minutes

SMILES	covalent adduct formation (CAF)
C=CC(=O)N1CCN(c2nc(=O)n3c4c(c(-c5ccc(F)cc5F)c(Cl)cc24)SC(C)(C)C3)[C@@H](C)C1 [Example 76, 7-((S)-4-acryloyl-2-methylpiperazin-1-yl)-9-chloro-10-(2,4-difluorophenyl)-2,2-dimethyl-2,3-dihydro-5H-[1,4]thiazino[2,3,4-ij]quinazolin-5-one]	86.8
C=CC(=O)N1CCN(c2nc(=O)n3c4c(c(-c5c(F)cc(F)cc5F)c(Cl)cc24)SC[C@@H]3CC2CCN(C)CC2)[C@@H](C)C1 [Example 343, (S)-7-((S)-4-acryloyl-2-methylpiperazin-1-yl)-9-chloro-3-((1-methylpiperidin-4-yl)-methyl)-10-(2,4,6-trifluorophenyl)-2H-[1,4]thiazino[2,3,4-ij]-quinazolin-5(3H)-one]	96.7
C=CC(=O)N1CCN(c2nc(=O)n3c4c(c(-c5ccc(F)cc5F)c(Cl)cc24)SC[C@H]3CCCN2C[C@@H]3C[C@H]2CO3)[C@@H](C)C1 [Example 341, (3R)-3-(3-((1S,4S)-2-oxa-5-azabicyclo[2.2.1]heptan-5-yl)propyl)-7-((S)-4-acryloyl-2-methylpiperazin-1-yl)-9-chloro-10-(2,4-difluorophenyl)-2H-[1,4]thiazino[2,3,4-ij]quinazolin-5 (3H)-one]	96.5
C=CC(=O)N1CCN(c2nc(=O)n3c4c(c(-c5ccc(F)cc5F)c(Cl)cc24)SC[C@H]3C)[C@@H](C)C1 [Example 99, (3R)-7-((S)-4-acryloyl-2-methylpiperazin-1-yl)-9-chloro-10-(2,4-difluorophenyl)-3-methyl-2H-[1,4]thiazino[2,3,4-ij]quinazolin-5(3H)-one]	87.2

More lines, now with the values ahead:

covalent adduct formation (CAF)	SMILES
79.3	C=CC(=O)N1CCN(c2nc(=O)n3c4c(c(-c5ccc(F)cc5F)c(Cl)cc24)SC[C@H]3CN2CCN(CC)CC2)[C@@H](C)C1 [Example 346, (3R)-7-((S)-4-acryloyl-2-methylpiperazin-1-yl)-9-chloro-10-(2,4-difluorophenyl)-3-((4-ethylpiperazin-1-yl)-methyl)-2H-[1,4]-thiazino[2,3,4-ij]-quinazolin-5(3H)-one]
94.7	C=CC(=O)N1CCN(c2nc(=O)n3c4c(c(-c5ccc(F)cc5F)c(Cl)cc24)SC[C@@H]3CCCN2C[C@@H]3C[C@H]2CO3)[C@@H](C)C1 [Example 342, (3S)-3-(3-((1S,4S)-2-oxa-5-azabicyclo [2.2.1]heptan-5-yl)-propyl)-7-((S)-4-acryloyl-2-methyl-piperazin-1-yl)-9-chloro-10-(2,4-difluorophenyl)-2H-[1,4]thiazino[2,3,4-ij]-quinazolin-5(3H)-one]
96.9	C=CC(=O)N1CCN(c2nc(=O)n3c4c(c(-c5c(F)cc(F)cc5F)c(Cl)cc24)SC[C@@H]3CCCN2C[C@@H]3C[C@H]2CO3)[C@@H](C)C1 [Example 340, (S)-3-(3-((1S,4S)-2-oxa-5-azabicyclo-[2.2.1]heptan-5-yl)-propyl)-7-((S)-4-acryloyl-2-methyl-piperazin-1-yl)-9-chloro-10-(2,4,6-trifluorophenyl)-2H-[1,4]thiazino[2,3,4-ij]-quinazolin-5(3H)-one]
